We go through three molecules from PMC3479019, “Identification and functional analysis of gene cluster involvement in biosynthesis of the cyclic lipopeptide antibiotic pelgipeptin produced by Paenibacillus elgii” (BMC Microbiology, 2012).

Common to all, as to assay: amino acid adenylation, pyrophosphate release, inorganic pyrophosphatase / malachite green, […] nm
Assay type in all cases: biochemical
What all share (conditions): 5 mM ATP, 10 mM MgCl2, 6 mM amino acid, 100 mM NaCl, 50 mM Tris-HCl pH 7.5, 25 °C

For one assay, the target named is T1, PlpD A1 (Paenibacillus elgii, UniProt I1Z6A2).
T1 construct: pET28a, E. coli BL21(DE3), Ni-purified, His-tag (C-terminal by primers, inferred); borders by primers plpD-A1-F/R, N-term MENILT, C-term GAEYE then LE-tag (translated from primers)
T1 sequence (I1Z6A2 446-978): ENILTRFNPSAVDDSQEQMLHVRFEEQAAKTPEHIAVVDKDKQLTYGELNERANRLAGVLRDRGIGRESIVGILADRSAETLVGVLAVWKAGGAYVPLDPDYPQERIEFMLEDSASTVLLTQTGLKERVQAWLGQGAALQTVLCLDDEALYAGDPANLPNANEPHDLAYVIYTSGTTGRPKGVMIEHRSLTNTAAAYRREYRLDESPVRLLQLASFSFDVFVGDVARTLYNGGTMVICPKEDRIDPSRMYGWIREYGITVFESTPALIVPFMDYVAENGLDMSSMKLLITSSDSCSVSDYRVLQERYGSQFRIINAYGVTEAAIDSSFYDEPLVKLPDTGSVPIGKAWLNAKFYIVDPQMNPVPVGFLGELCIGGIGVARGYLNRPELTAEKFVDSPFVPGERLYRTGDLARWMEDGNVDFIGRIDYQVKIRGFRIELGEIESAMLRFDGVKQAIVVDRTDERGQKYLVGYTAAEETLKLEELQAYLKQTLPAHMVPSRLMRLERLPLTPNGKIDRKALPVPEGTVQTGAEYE

In a further assay the target is T2, PlpE A3 (Paenibacillus elgii, UniProt I1Z6A3).
T2 construct: pET28a, E. coli BL21(DE3), Ni-purified, His-tag (C-terminal by primers, inferred); borders by primers plpE-A3-F/R, N-term MAAEQT, C-term ADYVA then KL-tag (translated from primers)
T2 sequence (I1Z6A3 2324-2843): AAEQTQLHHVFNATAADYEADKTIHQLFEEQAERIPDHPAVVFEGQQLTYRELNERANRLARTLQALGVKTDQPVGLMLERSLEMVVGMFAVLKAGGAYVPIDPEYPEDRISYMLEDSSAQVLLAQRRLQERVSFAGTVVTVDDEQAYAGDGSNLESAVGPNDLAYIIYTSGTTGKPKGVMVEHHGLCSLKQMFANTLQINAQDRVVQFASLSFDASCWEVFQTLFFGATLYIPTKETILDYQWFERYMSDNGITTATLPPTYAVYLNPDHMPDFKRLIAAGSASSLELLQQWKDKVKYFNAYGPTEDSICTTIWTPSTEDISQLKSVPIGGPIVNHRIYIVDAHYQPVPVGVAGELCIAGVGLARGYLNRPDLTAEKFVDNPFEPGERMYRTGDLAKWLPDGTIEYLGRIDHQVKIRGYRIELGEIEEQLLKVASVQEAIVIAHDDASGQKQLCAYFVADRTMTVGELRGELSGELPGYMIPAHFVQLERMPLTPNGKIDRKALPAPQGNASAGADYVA

In the next assay the target is T3, PlpF A1 (Paenibacillus elgii, UniProt I1Z6A4).
T3 construct: pET28a, E. coli BL21(DE3), Ni-purified, His-tag (N-terminal by primers, stop codon in reverse primer, inferred); borders by primers plpF-A1-F/R, N-term (AS)LSDSE, C-term TGLE (translated from primers)
T3 sequence (I1Z6A4 entry or part of it): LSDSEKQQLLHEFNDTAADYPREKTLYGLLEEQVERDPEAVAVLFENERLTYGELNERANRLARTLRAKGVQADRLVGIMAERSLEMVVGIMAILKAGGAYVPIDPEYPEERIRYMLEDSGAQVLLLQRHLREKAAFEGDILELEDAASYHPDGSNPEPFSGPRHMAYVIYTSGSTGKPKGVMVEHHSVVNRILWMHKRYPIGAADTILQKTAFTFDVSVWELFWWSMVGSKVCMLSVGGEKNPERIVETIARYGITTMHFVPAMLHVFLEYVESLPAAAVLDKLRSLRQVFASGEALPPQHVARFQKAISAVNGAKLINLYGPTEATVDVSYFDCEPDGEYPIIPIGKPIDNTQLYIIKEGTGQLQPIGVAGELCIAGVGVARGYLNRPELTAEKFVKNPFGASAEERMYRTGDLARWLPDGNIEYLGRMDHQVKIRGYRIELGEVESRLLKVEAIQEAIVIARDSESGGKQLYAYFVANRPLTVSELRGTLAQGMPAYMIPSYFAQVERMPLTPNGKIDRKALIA

As to `NCC[C@H](N)C(=O)O` [L-Dab], the “amino acid adenylation, pyrophosphate release, inorganic pyrophosphatase / malac” value at PlpD A1 is “PlpD A1, PlpE A3, and Plp F A1 clearly exhibited the highest activity for L-Dab”.

Turning to `N[C@@H](Cc1ccccc1)C(=O)O` [L-Phe], the “amino acid adenylation, pyrophosphate release, inorganic pyrophosphatase / malac” value on PlpE A3 is “clearly exhibited the highest activity for L-Dab, L-Phe, and L-Ser, respectively”.

Regarding `N[C@@H](CO)C(=O)O` [L-Ser], the “amino acid adenylation, pyrophosphate release, inorganic pyrophosphatase / malac” value on PlpF A1 was “clearly exhibited the highest activity for L-Dab, L-Phe, and L-Ser, respectively”.
